Assays:
[1] = system: healthy recreational stimulant users; test: single-dose crossover abuse potential study, placebo- and methylphenidate-controlled; assay type: in vivo, human
Excerpt: A single-dose, randomized, double-blind, double-dummy, placebo- and active-controlled crossover study with 6 Treatment Visits per subject was undertaken. […] Subjects participated in a medical screening visit (Visit 1), one 4-day inpatient qualification phase (Visit 2), a treatment phase (Visits 3 to 8) consisting of six 5-day inpatient treatment visits, and a safety follow-up visit (Visit 9). Within 21 days of the screening visit, subjects were enrolled and attended a qualification phase in which they received either 60 mg methylphenidate or matching placebo in a randomized double-blind crossover manner. Dosing times were separated by approximately 24 hours to ensure that subjects could discriminate and show positive effects of the positive control.
Healthy female and male subjects aged 18 to 55 years (inclusive), who were recreational central nervous system (CNS) stimulant users with cocaine experience and who had passed the methylphenidate qualification phase, were randomized into the treatment.
Drug administration occurred on Day 1 of each treatment visit followed by pharmacodynamic (PD), pharmacokinetic (PK), and safety assessments conducted for up to 72 hours post-dose. […] Subjects were randomized to one of 6 treatment sequences according to a 6×6 William square design. The capsules received at each treatment visit (Visits 3 to 8) were identical. Serial pharmacodynamic and pharmacokinetic evaluations were taken at each treatment visit. Pharmacokinetic analysis was performed for dasotraline. Safety monitoring included regular assessments of vital signs, clinical laboratory tests, and adverse events (AEs), as well as continuous telemetry monitoring for at least 12 hours post-dose. Treatment visits were separated by a washout interval of at least 21 days (from the day of dosing). Subjects returned for the safety follow-up visit within approximately 14 days following the end of the last treatment visit.

clinical = conditions: human, in vivo
Method: Upon oral administration, methylphenidate is rapidly and completely absorbed from the gastrointestinal tract. Peak concentrations occur 1 to 2 hours after dose administration. […] When methylphenidate and cocaine are administered intravenously, their pharmacokinetics are quite similar—the percentage of each drug taken up by the brain and their rates of uptake are parallel, although the clearance from the brain of cocaine is faster than that of methylphenidate. The receptor-binding affinities for cocaine and methylphenidate are similar at the dopamine transporter in the basal ganglia and the striatum. […] Thus it appears that abuse may be related to a rapid surge in dopamine levels in the striatum. […] The consequence of the slow increase in dopamine is the absence of a “high”, and the consequence of the long T1/2 is that serum concentration gradually increases to a steady state.

DAT sites = molecular target: T1, DAT sites (Homo sapiens, UniProt Q01959); test: DAT site occupancy versus serum concentration (other studies, not shown); conditions: in vivo
T1 construct: from tissue; host or cells: brain in vivo (my inference)
T1 sequence (Q01959 whole entry): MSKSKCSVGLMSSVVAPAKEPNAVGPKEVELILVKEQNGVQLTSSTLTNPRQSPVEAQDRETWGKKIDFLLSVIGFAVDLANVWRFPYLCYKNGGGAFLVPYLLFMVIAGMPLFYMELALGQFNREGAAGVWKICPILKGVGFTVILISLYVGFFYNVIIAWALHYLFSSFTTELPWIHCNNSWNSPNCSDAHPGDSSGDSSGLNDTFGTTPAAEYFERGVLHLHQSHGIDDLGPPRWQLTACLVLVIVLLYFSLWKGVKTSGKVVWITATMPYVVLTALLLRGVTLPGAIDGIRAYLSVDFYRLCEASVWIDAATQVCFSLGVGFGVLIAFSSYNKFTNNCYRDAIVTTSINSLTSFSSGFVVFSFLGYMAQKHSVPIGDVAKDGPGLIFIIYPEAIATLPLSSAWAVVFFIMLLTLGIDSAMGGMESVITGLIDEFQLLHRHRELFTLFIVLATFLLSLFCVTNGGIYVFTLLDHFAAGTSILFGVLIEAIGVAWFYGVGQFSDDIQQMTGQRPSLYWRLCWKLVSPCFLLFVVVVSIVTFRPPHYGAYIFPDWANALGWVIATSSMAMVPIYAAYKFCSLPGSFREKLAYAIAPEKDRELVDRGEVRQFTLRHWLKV

adults with ADHD = assay type: in vivo, human
Method: The study consisted of three periods including Screening, Treatment, and Washout/Follow-up, as described below. Efficacy was evaluated using the ADHD Rating Scale Version IV (ADHD RS-IV) with adult prompts. Effects on cognition were evaluated using the clinical data repository system. Safety and tolerability were monitored throughout the study by collection of physical examinations, 12-lead electrocardiograms (ECG), vital signs, adverse events (AEs), hematology, blood chemistry, urinalysis, Insomnia Severity Index (ISI), and Columbia—Suicide Severity Rating Scale (C-SSRS).
Subjects self-administered the study drug at home on Days 1 through 28, at approximately the same time each night. After Day 1 subjects returned to the clinic on Days 8, 15, 22, and 29. Beginning at Day 1 and at every visit during the treatment period, the ADHD RS-IV, Wender-Reimherr Adult Attention Deficit Disorder Scale (WRAADDS), and clinical global impression—severity (CGI-S) were completed. The clinical data repository system was administered at Baseline, and Days 15 and 29.
At Days 36 and 43, subjects returned to the clinic and the ADHD RS-IV, WRAADDS, and CGI-S were completed. The clinical data repository system was completed on Day 43.

[2] = cited from earlier work
[3] = methylphenidate 40 mg and 80 mg, single dose

For `N[C@@H]1CC[C@@H](c2ccc(Cl)c(Cl)c2)c2ccccc21` [dasotraline, (1R,4S)-4-(3,4-Dichlorophenyl)-1,2,3,4-tetrahydronaphthalen-1-amine], the “differences from placebo on pharmacodynamic endpoints” value ([1]; 16 mg single dose) was “very few statistically significant differences from placebo”, the “effects on most pharmacodynamic endpoints versus placebo” value ([1]; dasotraline 8, 16 and 36 mg, single dose) was “not significantly different from those of placebo” and the Cmax (clinical; 4 mg) was roughly 1.5 ng/mL. The Tmax (clinical; 4 mg) was greater than 6 h, the Tmax (clinical; po) was 10 to 12 h and the half-life (clinical; po) was 47 to 77 h. The “serum concentration at which 50% DAT site occupancy was achieved” value (DAT sites) was 5 to 6 ng/mL, the “anxiety leading to discontinuation” value (adults with ADHD; 4 mg once daily) was 2.6% and the “computerized cognitive assessment battery: attention, working memory, episodic memory” value (adults with ADHD; 4 mg once daily) was “no significant main effects”. For the same compound, the “insomnia leading to discontinuation” value (adults with ADHD; 4 mg once daily) was 2.6%, the “Wender-Reimherr ADD total score” value (adults with ADHD; 4 mg once daily versus placebo) was “did not improve enough to achieve statistical significance” and the “treatment-emergent adverse events (TEAEs), percentage” value (adults with ADHD; 4 mg once daily versus placebo) was “higher than the percentage of TEAEs in the placebo group”. The “Wender-Reimherr subscore for the attention difficulties component” value (adults with ADHD; 4 mg once daily versus placebo, week 4) was “statistically significant improvement”, the “serum concentration as a function of time” value (adults with ADHD; 4 mg once daily, 4 weeks) was “began to plateau by week four” and the “ADHD RS-IV total score, LS mean change from baseline versus placebo” value (adults with ADHD; 4 mg once daily, to week four, p<0.05, FIG. 1) was “statistically different at weeks three and four”. For the same compound, the “CGI-S score, LS mean change from baseline versus placebo” value (adults with ADHD; 4 mg once daily, to week four, p<0.05, FIG. 2) was “statistically different at weeks three and four”, the “incidence of adverse events rated as severe” value (adults with ADHD; 4 mg once daily, placebo group 2.7%) was 6% and the “mean concentrations at steady state” value (adults with ADHD; 4 mg/d) was 6 ng/mL. The “circulating DHPG levels” value (adults with ADHD; 4 mg/d, indicative of central inhibition of norepinephrine transporters) was “decreased circulating DHPG levels” and the “time of administration to statistically significant improvement in ADHD” value (adults with ADHD; oral dosage form containing 4 mg) was “about two to three”.

In the case of `COC(=O)C(c1ccccc1)C1CCCCN1` (stereo not shown) [methylphenidate], the pharmacokinetic half-life ([2]; in vivo) is listed as “approximately 2 hours”, the “time of peak concentrations after dose administration” value ([2]; oral administration) is listed as 1 to 2 h and the “Drug Similarity Visual Analog Scale” value [1, 3] is listed as “strongly identified as a stimulant”. For the same compound, the “majority of pharmacodynamic endpoints incl. Drug Liking Visual Analog Scale, versus placebo” value [1, 3] was “significant differences compared to placebo” and the secondary stimulant measures [1, 3] was “strong stimulant effects”.

Reference: patent US10076503B2 (priority 2014, dated 2018)
